Laboratory results published in patent EP1439177B1, “Antiviral activity and resolution of 2-hydroxymethyl-5-(5-fluorocytosin-1-yl)-1,3-oxathiolane” (Emory University, priority 1991, dated 1992).
Read-outs that look alike come from different tables or passages of the source.

Columns and labels:
in vitro [1] = details: african green monkey, vero cells
[2] = test system: peripheral human bone marrow cells; experiment: Toxicity to peripheral human bone marrow cells; format: cell-based; details: concentrations up to 50 µM
in vivo [3] = details: rhesus monkey, 33.3 mg/kg; for clearance: CLT, I.V. 33.3 mg/kg
HIV = experiment: microbe, parasite or virus in culture; format: cell-based; details: Human immunodeficiency virus 1
HIV-1 (strain LAV) = experiment: microbe, parasite or virus in culture; format: cell-based; details: Human immunodeficiency virus 1, PBMC
Text: It is often desirable to screen a number of racemic mixtures of nucleosides as a preliminary step to determine which warrant further resolution into enantiomerically enriched components and further evaluation of antiviral activity. The ability of nucleosides to inhibit HIV can be measured by various experimental techniques. The technique used herein, and described in detail below, measures the inhibition of viral replication in phytohemagglutinin (PHA) stimulated human peripheral blood mononuclear (PBM) cells infected with HIV-1 (strain LAV). The amount of virus produced is determined by measuring the virus-coded reverse transcriptase enzyme. The amount of enzyme produced is proportional to the amount of virus produced.
• A. Three-day-old phytohemagglutinin-stimulated PBM cells (10^6 cells/ml) from hepatitis B and HIV-1 seronegative healthy donors were infected with HIV-1 (strain LAV) at a concentration of about 100 times the 50% tissue culture infectious dose (TICD 50) per ml and cultured in the presence and absence of various concentrations of antiviral compounds. • B. Approximately one hour after infection, the medium, with the compound to be tested (2 times the final concentration in medium) or without compound, was added to the flasks (5 ml; final volume 10 ml). AZT was used as a positive control. • C. The cells were exposed to the virus (about 2 x 10^5 dpm/ml, as determined by reverse transcriptase assay) and then placed in a CO2 incubator. HIV-1 (strain LAV) was obtained from the Center for Disease Control, Atlanta, Georgia. The methods used for culturing the PBM cells, harvesting the virus and determining the reverse transcriptase activity were those described by McDougal et al. (J. Immun. Meth. 76, 171-183, 1985) and Spira et al. (J. Clin. Meth. 25, 97-99, 1987), except that fungizone was not included in the medium (see Schinazi, et al., Antimicrob. Agents Chemother. 32, 1784-1787 (1988); Id., 34:1061-1067 (1990)). • D. On day 6, the cells and supernatant were transferred to a 15 ml tube and centrifuged at about 900 g for 10 minutes. Five ml of supernatant were removed and the virus was concentrated by centrifugation at 40,000 rpm for 30 minutes (Beckman 70.1 Ti rotor). The solubilized virus pellet was processed for determination of the levels of reverse transcriptase. Results are expressed in dpm/ml of sampled supernatant. Virus from smaller volumes of supernatant (1 ml) can also be concentrated by centrifugation prior to solubilization and determination of reverse transcriptase levels.

in vitro [4] = details: human, cem cells
human PBM cells [5] = experiment: Uptake of radiolabeled FTC into human PBM cells; format: in vitro ADME; details: 10 µM radiolabeled FTC, 2 to 24 hours; Figure 7
Description: All studies were conducted in duplicate.

in vivo [6] = details: rat, plasma, iv
HIV-1 = experiment: microbe, parasite or virus in culture
Description: (§1) Cell lines were obtained from either human donors, AIDS Research and Reference Reagent Program, NIH, Rockville, Maryland, ATCC, or the Red Cross. The CEM thymidine kinase deficient cells were prepared by sequential passage of CEM cells in the presence of 5-bromo-2'-deoxyuridine.

HIV-2 = experiment: microbe, parasite or virus in culture; details: Human immunodeficiency virus 2, PBMC
Description: as §1

SIV = experiment: microbe, parasite or virus in culture; details: Simian immunodeficiency virus
Description: as §1

FIV = experiment: microbe, parasite or virus in culture; details: Feline immunodeficiency virus, CRFK
Description: as §1

[7] = Growth inhibition of mitogen-stimulated uninfected human PBM cells, trypan blue exclusion; format: cell-based; details: human, pbm cells
[8] = Chronic oral treatment of rodents, toxicity; format: in vivo; details: oral doses of 85 mg/kg per day for at least two months
other cell lines = experiment: Toxicity to other cell lines; format: cell-based; details: concentrations up to 200 µM
human PBM cells [9] = experiment: Egress of radiolabeled FTC from human PBM cells; format: in vitro ADME; details: 48 hours after the removal of the extracellular drug
Description: This study measures the time needed for intracellular levels of triphosphates to decline. Studies were conducted in duplicate. Uninfected cells (2 x 10^6 ml) were suspended in the appropriate medium supplemented with serum (10 ml per timepoint) and incubated at 37°C in a 5% CO2 incubator. The radiolabeled FTC concentration was 10 µM. After pulsing the cells with the labeled compound for 24 hours, the cells were thoroughly washed and then replenished with fresh medium without the antiviral drugs (0 hr). At 0, 2, 4, 6, 12, 24, and 48 hours (second incubation time), the cells were removed, and immediately extracted with 60% cold methanol/water. The extract was obtained by centrifugation and removal of the cell pellet. The extracts were lyophilized and then stored at -70°C. Prior to analysis, the material was resuspended in 250 microliters of HPLC buffer and immediately analyzed. Quantitation of intracellular parent drug and metabolic derivatives was conducted by HPLC, using either a Micromeritics or Hewlett-Packard model 1090 PHLC system with an anion exchange Partisel 10 SAX column (Whatman, Inc.), at a flow rate of 1 ml/min, 1 kpsi pressure, with UV detection at 262 nm. The mobile phase consisted of deionized water (A), 2 mM NaH2PO4/16 mM NaOAc (pH = 6.6) (B), 15 mM NaH2PO4/120.2 mM NaOAc (pH = 6.6) (C), and 100 mM NaH2PO4/800 mM NaOAc (pH = 6.6) (D). […]

[10] = target: HIV-1 reverse transcriptase (RT); experiment: Competitive inhibition of HIV-1 reverse transcriptase, poly(I)oligo(dC) template-primer; format: biochemical; details: read-out: K1 (affinity), competitive inhibition
Description: (§2) Toxicity and pharmacokinetic studies confirm the usefulness of FTC as an antiviral agent for pharmaceutical administration. FTC and its enantiomers are nontoxic to peripheral human bone marrow cells at concentrations up to 50 µM and other cell lines at concentrations up to 200 µM. FTC-TP is a major intracellular metabolite in PBMC and HepG2 cells.

HIV-RT = HIV-RT (Human immunodeficiency virus type 1 group M subtype B, UniProt P04585); experiment: DNA chain termination by sequencing analysis; format: biochemical
Description: as §2

In the case of `Nc1nc(=O)n([C@@H]2CS[C@H](CO)O2)cc1F` (racemic) [(±)-FTC, (±)-β-D.L-2-hydroxymethyl-5-(5-fluorocytosin-1-yl)-1,3-oxathiolane], the CC50 (in vitro [1]) is reported as > 100000 nM, the toxicity [2] is reported as “nontoxic” and the Vd (in vivo [3]; iv) is reported as 2 L/kg. The clearance (in vivo [3]; iv, Mean of three monkeys) was 24.8 mL/min/kg, the clearance (in vivo [3]; iv, individual monkeys RUh, RMi, RJd) was 29 mL/min/kg and the bioavailability (in vivo [3]; po, F (bioavailability), P.O. 33.3 mg/kg, individual monkeys RUh, RMi, RJd) was 80%. For the same compound, the IC50 (HIV) was 520 nM, the EC50 (HIV-1 (strain LAV); read-out: Antiviral EC50) was 10 nM and the EC50 (HIV-1 (strain LAV); read-out: activity in PBM cells) was ~10 nM. For the same compound, the CC50 (in vitro [4]) was > 100000 nM, the “uptake in human lymphocytes” value (human PBM cells [5]) was “readily taken up” and the clearance (in vivo [6]; 10 mg/kg) was 16.5 mL/min/kg. For the same compound, the half-life (in vivo [6]; 10 mg/kg) was 45.4 min, the MRT (in vivo [6]; 50 mg/kg) was 48 min and the clearance (in vivo [6]; 50 mg/kg) was 14.6 mL/min/kg. The half-life (in vivo [6]; 50 mg/kg) was 48.9 min, the clearance (in vivo [6]; 100 mg/kg) was 13.8 mL/min/kg and the half-life (in vivo [6]; 100 mg/kg) was 58.1 min. For the same compound, the EC50 (HIV-1; Human immunodeficiency virus 1, CEM (HTLV1118) NIH) was 90 nM, the EC50 (HIV-1; Human immunodeficiency virus 1, CEM (LAV-1)) was 80 nM and the EC50 (HIV-1; Human immunodeficiency virus 1, CEM-TK(-), CEM-TK^(-) (LAV-1)) was 26 nM. The EC50 (HIV-1; Human immunodeficiency virus 1, MT2 (HTLV1118)) was 890 nM, the EC50 (HIV-1; Human immunodeficiency virus 1, PBMC, PBMC (LAV-1)) was 27 nM and the EC50 (HIV-2) was 3.8 nM. The EC50 (SIV) was 4600 nM, the EC50 (SIV; C8166) was < 8000 nM and the EC50 (FIV) was ≤ 1000 nM. The CC50 at 144 h [7] was > 100000 nM, the “toxicity of chronic treatment” value [8] was “not toxic” and the toxicity (other cell lines) was “nontoxic”.

For `Nc1nc(=O)n([C@@H]2CS[C@H](COP(=O)(O)OP(=O)(O)OP(=O)(O)O)O2)cc1F` (racemic) [FTC-TP], the intracellular concentration (human PBM cells [9]) was 1 to 5 µM, the Ki [10] was 200 nM and the “DNA chain terminator (C-stops)” value (HIV-RT) was “potent DNA chain terminator”.
